Holding throughout (format): in vivo
Experiment [1] has as its system barnyardgrass (Echinochloa crus-galli; ECHCG). The experiment is described as follows: Postemergence herbicidal activity of mixtures in the greenhouse, visual weed control. On the procedure:
(§1) Evaluation of Postemergence Herbicidal Activity of Mixtures in the Greenhouse
(§2) Seeds of the desired test plant species were planted in 80% mineral soil/20% grit planting mixture, which typically has a pH of 7.2 and an organic matter content of about 2.9 percent, in plastic pots with a surface area of 128 square centimeters (cm^2). The growing medium was steam sterilized. The plants were grown for 7-19 days in a greenhouse with an approximate 14-hour (h) photoperiod which was maintained at about 29° C. during the day and 26° C. during the night. Nutrients and water were added on a regular basis and supplemental lighting was provided with overhead metal halide 1000-Watt lamps as necessary. The plants were treated with postemergence foliar applications when they reached the third to fourth true leaf stage. All treatments were applied using a randomized complete block trial design, with 4 replications per treatment.
(§3) Treatments consisted of the compounds as listed in Tables 1, 2, 4 and 5 with each compound applied alone and in combination. Formulated amounts of cyhalofop-butyl, metamifop, profoxydim and fluoroxypyr-meptyl ester, were placed in 60 milliliter (mL) glass vials and dissolved in a volume of 60 mL of a water solution containing Agri-dex crop oil concentrate in a 1% volume per volume (v/v) ratio. Compound requirements are based upon a 12 mL application volume at a rate of 187 liters per hectare (L/ha). Spray solutions of the mixtures were prepared by adding the stock solutions to the appropriate amount of dilution solution to form 12 mL spray solution with active ingredients in single and two way combinations. Formulated compounds were applied to the plant material with an overhead Mandel track sprayer equipped with 8002E nozzles calibrated to deliver 187 L/ha at a spray height of 18 inches ([…] (cm)) above average plant canopy.
(§4) The treated plants and control plants were placed in a greenhouse as described above and watered by sub-irrigation to prevent wash-off of the test compounds. Treatments were rated at 14 to 21 days after application as compared to the untreated control plants. Percent visual weed control was scored on a scale of 0 to 100 percent where 0 corresponds to no injury and 100 corresponds to complete kill.
(§5) Colby's equation was used to determine the herbicidal effects expected from the mixtures (Colby, S. R. Calculation of the synergistic and antagonistic response of herbicide combinations. Weeds 1967, 15, 20-22.).
(§6) The following equation was used to calculate the expected activity of mixtures containing two active ingredients, A and B: Expected=A+B−(A×B/100)
(§7) A=observed efficacy of active ingredient A at the same concentration as used in the mixture.
(§8) B=observed efficacy of active ingredient B at the same concentration as used in the mixture.

Experiment [2] concerns Chinese sprangletop (Leptochloa chinensis; LEFCH). The description is as above. Particulars: 21 DAA. On the procedure:
as §1, §2, §3, §4, §5, §6, §7, §8

In experiment [3] the test system is broadleaf signalgrass (Brachiaria platyphylla; BRAPP). The experiment is described as above. On the procedure: as §1, §2, §3, §4, §5, §6, §7, §8
Experiment [4] relates to giant foxtail (Setaria faberi; SETFA). Described as above. Particulars: 21 DAA, Table 2. How it is done:
as §1, §2, §3, §4, §5, §6, §7, §8

Experiment [5] deals with winklegrass (Ischaemum rugosum; ISCRU). The experiment is described as above. Particulars: 14 DAA, Table 1. On the procedure:
as §1, §2, §3, §4, §5, §6, §7, §8

For experiment [6], the system named is barnyardgrass (Echinochloa crus-galli; ECHCG). The experiment is described as follows: Postemergence herbicidal activity of mixtures in the field (drill-seeded rice), visual weed control. Particulars: 29-36 DAA, Table 3. On the procedure: (§9) Evaluation of Postemergence Herbicidal Activity of Mixtures in the Field
(§10) Field trials were conducted in drill-seeded rice using standard herbicide small plot research methodology. Plots were typically 3×10 meters (m, width×length) in size with 4 replicates per treatment. The rice crop was grown using normal cultural practices for fertilization, seeding, watering, flooding and maintenance to ensure good growth of the crop and the weeds.
(§11) All treatments in the field trials were applied using a carbon dioxide (CO2) backpack sprayer calibrated to apply 187 L/ha spray volume. Commercially available products of cyhalofop-butyl and fluoroxypyr-meptyl were mixed in water at appropriately formulated product rates to achieve the desired rates based on a unit area of application (hectare) to achieve the desired application rates as shown. Treatments were rated at 29 to 36 days after application (DAA) as compared to the untreated control plants. Percent visual weed control was scored on a scale of 0 to 100 percent where 0 corresponds to no injury and 100 corresponds to complete kill.
(§12) All treatment results, both for the single product and mixtures, are an average of 4 replicates and the tank mix interactions are significant at the […] level using Tukey's T-test.
as §5, §6, §7, §8

The subject of experiment [7] is tighthead sprangletop (Leptochloa panicoides; LEFPA). The experiment is described as above. Conditions: 29-36 DAA, Table 3. On the procedure: as §9, §10, §11, §12, §5, §6, §7, §8
Setting [8] is: Metamifop 7.5 g ai/ha alone, 21 DAA, Table 4.
Where [9] appears, read: Metamifop 15 g ai/ha alone, 21 DAA, Table 4.
[10] abbreviates: Fluroxypyr 50 g ae/ha alone, 21 DAA, Table 4.
Setting [11] is: Fluroxypyr 70 g ae/ha alone, 14 DAA, Table 1.
Setting [12] is: Fluroxypyr 100 g ae/ha alone, 21 DAA, Table 4.
[13] abbreviates: Fluroxypyr 200 g ae/ha alone, 21 DAA, Table 4.

Where “and” joins values, the source holds several entries; their conditions need not be identical. Identical values can stand only once.

Consider `C[C@@H](Oc1ccc(Oc2nc3ccc(Cl)cc3o2)cc1)C(=O)N(C)c1ccccc1F` [Metamifop, (2R)-2-[4-[(6-chloro-2-benzoxazolyl)oxy]-phenoxy]-N-(2-fluorophenyl)-N-methylpropanamide], for which the “% Control ECHCG Ob” value in experiment [1] (setting [8]) came to 5%; in experiment [1] (setting [9]) it was 33%; in experiment [1] (Metamifop 30 g ai/ha alone, 21 DAA, Table 4), 74%. Also, the “% Control LEFCH Ob” value in experiment [2] (Metamifop 7.5 g ai/ha alone, Table 4) is recorded as 23%; in experiment [2] (Metamifop 30 g ai/ha alone, Table 4), 88%. For the same compound, the “% Control BRAPP Ob” value in experiment [3] (setting [8]) is listed as 25%; in experiment [3] (setting [9]), 54%.

Turning to `C[C@@H](Oc1ccc(Oc2ccc(C#N)cc2F)cc1)C(=O)O` [Cyhalofop, (2R)-2-[4-(4-cyano-2-fluorophenoxy)phenoxy]-propanoic acid], the “% Control ECHCG Ob” value in experiment [1] (Cyhalofop 63 g ae/ha alone, 14 DAA, Table 1) was found to be 55%; in experiment [1] (Cyhalofop 126 g ae/ha alone, 14 DAA, Table 1), 73%; in experiment [6] (Cyhalofop 262 g ae/ha alone), 67%. The “% Control SETFA Ob” value in experiment [4] (Cyhalofop 63 g ae/ha alone) turned out to be 82%. For the same compound, in experiment [5] (Cyhalofop 126 g ae/ha alone), the “% Control ISCRU Ob” value is reported as 15%. Further, the “% Control LEFCH Ob” value in experiment [2] (Cyhalofop 63 g ae/ha alone, Table 2) stood at 67%. Also, the “% Control BRAPP Ob” value in experiment [3] (Cyhalofop 253 g ae/ha alone, 14 DAA, Table 1) is recorded as 77%. Besides, the “% Control LEFPA Ob” value in experiment [7] (Cyhalofop 262 g ae/ha alone) amounted to 33%.

Take `Nc1c(Cl)c(F)nc(OCC(=O)O)c1Cl` [Fluroxypyr, [(4-amino-3,5-dichloro-6-fluoro-2-pyridinyl)oxy]acetic acid]: the “% Control ECHCG Ob” value came out at 0% in experiment [1] (setting [10]); 0% in experiment [1] (Fluroxypyr 50 g ae/ha alone, 21 DAA, Table 5); 14% in experiment [1] (setting [11]); 11% in experiment [1] (setting [12]); 0% in experiment [1] (Fluroxypyr 100 g ae/ha alone, 21 DAA, Table 5); 9% in experiment [1] (Fluroxypyr 140 g ae/ha alone, 14 DAA, Table 1). Besides, the “% Control ECHCG Ob” value in experiment [1] (setting [13]) is 6%; in experiment [1] (Fluroxypyr 200 g ae/ha alone, 21 DAA, Table 5), 5%; in experiment [1] (Fluroxypyr 280 g ae/ha alone, 14 DAA, Table 1), 8%; in experiment [6] (Fluroxypyr 580 g ae/ha alone), 0%. Also, the “% Control SETFA Ob” value in experiment [4] (Fluroxypyr 140 g ae/ha alone) worked out at 50%. Further, the “% Control ISCRU Ob” value in experiment [5] (Fluroxypyr 140 g ae/ha alone) was found to be 15%. The “% Control LEFCH Ob” value in experiment [2] (Fluroxypyr 50 g ae/ha alone, Table 4) is 6%; in experiment [2] (Fluroxypyr 70 g ae/ha alone, Table 2), 28%; in experiment [2] (Fluroxypyr 100 g ae/ha alone, Table 5), 41%; in experiment [2] (Fluroxypyr 140 g ae/ha alone, Table 2), 5%; in experiment [2] (Fluroxypyr 200 g ae/ha alone, Table 4), 41%; in experiment [2] (Fluroxypyr 200 g ae/ha alone, Table 5) it was 48% and 49%. In addition, the “% Control BRAPP Ob” value in experiment [3] (setting [10]) came to 5%; in experiment [3] (setting [11]), 22%; in experiment [3] (setting [12]) it was 1%; in experiment [3] (setting [13]), 5%. The “% Control LEFPA Ob” value in experiment [7] (Fluroxypyr 190 g ae/ha alone) came to 0%; in experiment [7] (Fluroxypyr 290 g ae/ha alone), 3%; in experiment [7] (Fluroxypyr 580 g ae/ha alone), 0%.

As for `CCCC(=NOCC(C)Oc1ccc(Cl)cc1)C1=C(O)CC(C2CCCSC2)CC1=O` (stereo not shown) [Profoxydim, 2-[1-[[2-(4-chlorophenoxy)propoxy]imino]-butyl]-3-hydroxy-5-(tetrahydro-2H-thiopyran-3-yl)-2-cyclohexen-1-one], the “% Control ECHCG Ob” value in experiment [1] (Profoxydim 25 g ai/ha alone, 21 DAA, Table 5) stood at 54%. In addition, the “% Control LEFCH Ob” value in experiment [2] (Profoxydim 25 g ai/ha alone, Table 5) stood at 61%; in experiment [2] (Profoxydim 50 g ai/ha alone, Table 5), 78%.

For the origin of these results see US8420571B2, “Synergistic herbicidal composition containing fluroxypyr and cyhalofop, metamifop or profoxydim” (Dow AgroSciences, LLC, priority 2009, dated 2013).
